Experimental data published in patent publication US10525060B2, “HCK as a therapeutic target in MYD88 mutated diseases” (Dana-Farber Cancer Institute, Inc., priority 2016, dated 2020).
Read-outs that look alike come from different tables or passages of the source.

Experiments:
[1] = biological target: T1, SRC (Homo sapiens, UniProt P12931); experiment: Kinase active-site inhibition assay (ATP-biotin probe, western blot) in BCWM.1 cells; type: binding; conditions: BCWM.1 WM cells, pre-treated 1 hour, various concentrations
T1 construct: endogenous in cells; host or cells: BCWM.1
Method: (§1) Cells then washed with PBS twice, and lysed with co-IP buffer (Invitrogen, Grand Island N.Y.). Two mg of protein from lysed cells was then incubated with […] of Pierce Streptavidin Magnetic Beads (Thermo Fisher Scientific, Cambridge Mass.) at 4° C. for 1 hour, then washed with TBST (0.1% Tween-20) thrice, and proteins eluted with SDS-PAGE sample buffer. […] Cells then were lysed and kinases were pulled down with ATP-biotin using Pierce™ Kinase Enrichment Kit (Thermo Fisher Scientific) per manufacturer's instructions. Kinases were eluted with SDS-PAGE sample buffer and detected by western blot.

[2] = tested on: mutated MYD88 cell lines and primary WM cells; experiment: Apoptosis by propidium iodide and Annexin V staining; type: cell-based; conditions: 0.5 μM, 18 hours
Method: (§2) Apoptosis analysis was performed using Annexin V/Propidium iodide staining with the Apoptosis Detection Kit I (BD Pharmingen, San Jose Calif.). Cells (1×10^6/well) were treated in 24 well plates for 18 hours with inhibitors or corresponding controls. A minimum of 10,000 events were acquired using a BD™ FACSCanto II flow cytometer, and analyzed with BD FACS DIVA Software. For WM patient cells, BMMC (2×10^6/well) were treated with inhibitors, and CD19-APC-cy7 antibody (BD Pharmingen) was used with Annexin V antibody to analyze WM cell apoptosis. AlamarBlue® cell viability assay (Life Technologies, Carlsbad Calif.) was used to assess cell death following inducible HCK knockdown. For these experiments, transduced cells (1×10^5/ml) were cultured with tetracycline, and aliquoted every other day on days 1-11. AlamarBlue® solution ( 1/10 total volume) was added to cells and incubated for 2 hours. Aliquoted plates were read in a SpectraMax M3 plate reader (Molecular Devices, Sunnyvale, Calif.). Relative cell survival was calculated as percentage of fluorescence relative to scrambled control. The CellTiter-Glo® Luminescent cell viability assay (Promega, Madison Wis.) was used to assess the dose-response of inhibitors. Cells were seeded into 384 well plates with the EL406 Combination Washer Dispenser (BioTek Instruments, Inc.) and inhibitors injected into the cells culture media with the JANUS Automated Workstation (PerkinElmer Inc., Waltham Mass.). Cells were treated with serial diluted inhibitors (20-0.0006 M) for 72 hours at 37° C. Luminescent measurement was performed using the 2104 Envision® Multilabel Reader (PerkinElmer Inc.).
(§3) We also evaluated tumor cell viability by the CellTiter-Glo® Luminescent cell viability assay, and apoptosis by propidium iodide and Annexin V staining to determine if HCK inhibition contributed to WM cell death.

[3] = tested on: MYD88^WT cell lines or healthy donor B-cells; experiment: as above; type: cell-based; conditions: data not shown
Method: as §2, §3

[4] = biological target: T2, HCK (Homo sapiens, UniProt P08631); experiment: Kinase active-site inhibition assay (ATP-biotin probe, western blot) in BCWM.1 cells; type: binding; parameters: endogenous in cells; host or cells: BCWM.1 (A3); BCWM.1, MWCL-1, TMD-8 (A8); WM and ABC DLBCL lines and primary WM cells (A12); conditions: BCWM.1 WM cells, pre-treated 1 hour, various concentrations
Method: as §1

[5] = biological target: T3, LYN (Homo sapiens, UniProt P07948); experiment: as above; type: binding; parameters: endogenous in cells; host or cells: BCWM.1; conditions: BCWM.1 WM cells, pre-treated 1 hour, various concentrations
Method: as §1

[6] = tested on: CD19+ bone marrow cells; experiment: Apoptosis by flow cytometry in cells from a WM patient resistant to ibrutinib; type: cell-based, human
Method: as §2, with “Cells were seeded into 384 well plates with the EL406 Combination Washer Dispenser (BioTek Instruments, Inc.) and inhibitors injected into the cells culture media with the JANUS Automated Workstation (PerkinElmer Inc., Waltham Mass.). Cells were treated with serial diluted inhibitors (20-0.0006 M) for 72 hours at 37° C.” left out

[7] = tested on: CD5+CD19+ PBMC cells; experiment: Apoptosis ex vivo in cells from a CLL patient resistant to ibrutinib; type: cell-based, human; conditions: DMSO 11.9%
[8] = tested on: mutated MYD88 expressing WM and ABC DLBCL cell lines; experiment: CellTiter-Glo Luminescent cell viability assay; type: cell-based
Method: as §2, with “AlamarBlue® solution ( 1/10 total volume) was added to cells and incubated for 2 hours.” left out, “The CellTiter-Glo® Luminescent cell viability assay (Promega, Madison Wis.) was used to assess the dose-response of inhibitors. Cells were seeded into 384 well plates with the EL406 Combination Washer Dispenser (BioTek Instruments, Inc.) and inhibitors injected into the cells culture media with the JANUS Automated Workstation (PerkinElmer Inc., Waltham Mass.). Cells were treated with serial diluted inhibitors (20-0.0006 M) for 72 hours at 37° C.” left out
as §3

[9] = biological target: T3, LYN; experiment: KiNativ profiling in WM cell lines; type: binding; parameters: endogenous in cells; host or cells: BCWM.1 and MWCL-1 WM cell lines; conditions: for inhibition at 1 µM: read-out: KiNativ profiling, LYN inhibition (labeling site Lys1); for KiNativ profiling, LYN inhibition (labeling site Lys1): 1 μM
[10] = biological target: T4, HCK (pTyr^411) (Homo sapiens, UniProt P08631); experiment: PhosFlow analysis of HCK Tyr411 phosphorylation; type: cell-based; conditions: MYD88 L265P WM and ABC DLBCL cell lines and primary WM LPC, 0.5 μM, 30 minutes
T4 construct: endogenous in cells; host or cells: BCWM.1 (A3); BCWM.1, MWCL-1, TMD-8 (A8); WM and ABC DLBCL lines and primary WM cells (A12)
Method: PhosFlow analysis was performed to delineate HCK phosphorylation. Cells were fixed with BD PhosFlow Fix Buffer I at 37° C. for 10 min. Cells were then centrifuged (300×g for 5 min) and washed twice with PhosFlow Perm/Wash Buffer I (BD Pharmingen). […] Following staining, cells were incubated in the dark for 30 min at room temperature, then washed thrice with BD PhosFlow Perm/Wash Buffer I, followed by anti-Rabbit IgG DyLight®-649 secondary antibody (Abcam), and incubated for an additional 20 min. Cells were then washed twice with BD PhosFlow Perm/Wash Buffer I and flow analysis performed using a BD™ FACSCanto II Flow Cytometer.
as §3

[11] = tested on: FYN, SRC, YES; experiment: KiNativ profiling in WM cell lines; type: binding, Homo sapiens; conditions: 1 μM
[12] = tested on: TMD-8 ABC DLBCL cells; experiment: Cell viability of TMD-8 cells transfected with BTK vectors; type: cell-based; conditions: FIG. 8B
[13] = biological target: T5, BTK (Homo sapiens, UniProt Q06187); experiment: Kinase active-site inhibition assay (ATP-biotin probe, western blot) in BCWM.1 cells; type: binding; conditions: BCWM.1 WM cells, pre-treated 1 hour, various concentrations
T5 construct: endogenous in cells; host or cells: BCWM.1 (A4); BCWM.1, MWCL-1, TMD-8 (A7)
Method: as §1

[14] = tested on: BCWM.1 WM cells; experiment: Dose dependent tumor cell survival of BCWM.1 cells transduced with BTK or HCK vectors; type: cell-based
Description: as §3

[15] = biological target: T2, HCK; conditions: read-out: IC50 kinase activity of HCK; cited from earlier work

Compound	blocking of ATP binding to SRC [1]	apoptotic changes [2]	apoptotic activity [3]	blocking of ATP binding to HCK [4]	blocking of ATP binding to LYN [5]	inhibition at 1 µM ([9]; BCWM.1 cells) [%]	inhibition at 1 µM ([9]; MWCL-1 cells) [%]	change in HCK Tyr411 phosphorylation [10]	KiNativ profiling, FYN, SRC, YES (labeling site Activation Loop) ([11]; BCWM.1 cells)	KiNativ profiling, FYN, SRC, YES (labeling site Activation Loop) ([11]; MWCL-1 cells)	other results
CN1CCN([C@H]2CC[C@H](n3cc(-c4ccc(Oc5ccccc5)cc4)c4c(N)ncnc43)CC2)CC1 [A419259]	blocked ATP binding to the SRC family members SRC and LYN	Increased apoptotic changes	little or no apoptotic activity	blocked ATP binding to HCK in a dose-dependent manner	blocked ATP binding to the SRC family members SRC and LYN	> 99	> 99	reduced HCK Tyr^411 phosphorylation	>99	98.1	apoptotic cells ([6]; 0.1 μM): 20.8%; apoptotic cells ([6]; 0.5 μM): 24.6%; apoptotic cells ([7]; 0.1 μM): 18.4%; apoptotic cells ([7]; 0.5 μM): 25.6%; dose-dependent viability ([8]; 72 hours, more pronounced in mutated MYD88 than MYD88 WT cells): Decreased dose-dependent viability
C=CC(=O)Nc1cccc(Nc2nc(Nc3ccc(OCCOC)cc3)ncc2F)c1 [CC-292]	did not block ATP binding to either SRC or LYN	little or no impact on apoptosis	little or no apoptotic activity	not CC-292 blocked ATP binding to HCK	did not block ATP binding to either SRC or LYN	–	–	little or no impact on HCK Tyr^411 phosphorylation	10.5	−0.4	potency for tumor cell killing in BTK^C481S expressing cells versus wild-type BTK or control vector [12]: decreased the potency; blocking of ATP binding to BTK [13]: blocked ATP binding to BTK; potency for tumor cell killing in BTK^C481S expressing cells versus wild-type BTK or control vector ([14]; BCWM.1 WM cells, FIG. 8A): reduced potency; change in tumor cell killing with HCK^T333M or wild-type HCK ([14]; BCWM.1 transduced to express HCK^T333M or wild-type HCK): No substantial change in tumor cell killing; IC50 [15]: 14.6 µM; higher EC50 in viability assay ([8]; mutated MYD88 cell lines except OCI-Ly3, 72 hours): > 1 log-fold; KiNativ profiling, LYN inhibition (labeling site Lys1) ([9]; BCWM.1 cells): 15.7; KiNativ profiling, LYN inhibition (labeling site Lys1) ([9]; MWCL-1 cells): 14.2
C=CC(=O)N1CCC[C@@H](n2nc(-c3ccc(Oc4ccccc4)cc3)c3c(N)ncnc32)C1 [Ibrutinib]	–	–	–	–	–	60.5	80.6	–	–	–	–
